Source: the supplement of paper PMC12513837
± gives the standard deviation of the averaged measurements.

Compound: CC(=O)N1CCc2c(c(N3CCCc4cc(-c5cnn(C)c5)c(C(F)F)cc43)nn2C2CCC(CN3CCN(c4ccc5c(c4)C(=O)N(C4CCC(=O)NC4=O)C5=O)CC3)CC2)C1 [CBPD-409]
Test: AUC of viability dose-response curve (relative to vehicle, 8 doses up to 10 µM) (fraction); higher = less sensitive (more viable); extreme values may be limits of the assay
Description: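 PRISM multiplexed pooled barcoded cell line viability screen at the Broad Institute, 887 cancer cell lines treated with CBPD-409 (p300/CBP PROTAC degrader) at 8 concentrations in threefold dilution, top dose 10 µM. The read-out is the area under the dose-response curve of relative viability versus vehicle (n=3). AUC < 0.3 is called strongly sensitive and AUC > 0.8 resistant.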

Row | Test System | AUC of viability dose-response curve
1 | SW837_LARGE_INTESTINE | 0.72
2 | SW900_LUNG | 0.853
3 | SW948_LARGE_INTESTINE | 0.577
4 | SW954_CERVIX | 0.702
5 | SW1088_CENTRAL_NERVOUS_SYSTEM | 1
6 | SW1116_LARGE_INTESTINE | 1
7 | SW1271_LUNG | 0.564
8 | SW1353_BONE | 1
9 | SW1463_LARGE_INTESTINE | 1
10 | SW1573_LUNG | 1
11 | SW1710_URINARY_TRACT | 0.8
12 | SW1783_CENTRAL_NERVOUS_SYSTEM | 0.884
13 | SW1990_PANCREAS | 1
14 | T3M5_THYROID | 0.776
15 | T3M10_LUNG | 0.64
16 | T24_URINARY_TRACT | 1
17 | T47D_BREAST | 0.593
18 | T84_LARGE_INTESTINE | 1
19 | T98G_CENTRAL_NERVOUS_SYSTEM | 0.8
20 | TALL1_HAEMATOPOIETIC_AND_LYMPHOID_TISSUE | 0.762
21 | TANOUE_HAEMATOPOIETIC_AND_LYMPHOID_TISSUE | 1

Row | Test System | AUC of viability dose-response curve
22 | TASK1_CENTRAL_NERVOUS_SYSTEM | 0.342
23 | TC32_BONE | 0.859
24 | TC106_BONE | 1
25 | TC205_BONE | 0.543
26 | TCCPAN2_PANCREAS | 0.875
27 | TCCSUP_URINARY_TRACT | 1
28 | TE1_OESOPHAGUS | 0.884
29 | TE5_OESOPHAGUS | 0.998
30 | TE6_OESOPHAGUS | 0.914
31 | TE8_OESOPHAGUS | 0.646
32 | TE9_OESOPHAGUS | 1
33 | TE10_OESOPHAGUS | 0.501
34 | TE11_OESOPHAGUS | 0.986
35 | TE14_OESOPHAGUS | 0.86
36 | TE15_OESOPHAGUS | 0.364
37 | TE617T_SOFT_TISSUE | 0.851
38 | TEN_ENDOMETRIUM | 0.726
39 | TF1_HAEMATOPOIETIC_AND_LYMPHOID_TISSUE | 0.757
40 | TFK1_BILIARY_TRACT | 0.717
41 | TGBC1TKB_BILIARY_TRACT | 1
42 | TGBC18TKB_LARGE_INTESTINE | 0.938

Row | Test System | AUC of viability dose-response curve
43 | TGBC52TKB_BILIARY_TRACT | 0.745
44 | TGW_AUTONOMIC_GANGLIA | 0.673
45 | THP1_HAEMATOPOIETIC_AND_LYMPHOID_TISSUE | 1
46 | TM31_CENTRAL_NERVOUS_SYSTEM | 0.826
47 | TM87_SOFT_TISSUE | 0.367 ± 0.19
48 | TOLEDO_HAEMATOPOIETIC_AND_LYMPHOID_TISSUE | 0.416
49 | TOV21G_OVARY | 0.644
50 | TOV112D_OVARY | 0.724
51 | TT1TKB_LARGE_INTESTINE | 1
52 | TT2609C02_THYROID | 0.775
53 | TTC442_SOFT_TISSUE | 0.911
54 | TTC549_SOFT_TISSUE | 0.52
55 | TTC642_SOFT_TISSUE | 0.541
56 | TTC709_SOFT_TISSUE | 0.23
57 | TTC1240_SOFT_TISSUE | 0.187
58 | TT_OESOPHAGUS | 0.566
59 | TT_THYROID | 0.15
60 | TUHR4TKB_KIDNEY | 1
61 | TYKNU_OVARY | 0.386
62 | U2OS_BONE | 1
